Reference: patent US11124523B2, “2,6-dioxaspiro [4,5] decane derivatives and preparation method therefor and pharmaceutical applications thereof” (SHANDONG LUYE PHARMACEUTICAL CO., LTD., priority 2017, dated 2021)
pEC50, pIC50: −log10 of the molar value. Structures can show the parent of a compound that is named as a salt.

Experiments:
CYP2C9 = CYP2C9 (Homo sapiens (Human), UniProt P11712); assay: Inhibition of cytochrome P450 isoenzymes, CYP2C9; type: in vitro ADME; conditions: >50 μM: inhibitory effect less than 50% at 50 μM; read-out: CYP 2C9 IC50
Protocol: (§1) 4.1 Experimental Purpose: To test the inhibitory effects of the compounds of the present disclosure on different isoforms of human cytochrome P450 isoenzymes
(§2) 1) The activities of CYP1A2, 2C9, 2C19, 2D6, and 3A4 were measured using a standard substrate method. In each reaction, the enzyme activities were measured in the presence and absence of the substance to be tested, wherein a single sample was measured at a total of eight test concentrations. A 5-in-1 mixed inhibitor was used.
(§3) 2) An incubation matrix comprising microsomes, a substrate, and an inhibitor or the compound to be tested was pre-incubated at 37° C. for 5 minutes, and then NADPH was added to start the reaction.
(§4) 3) After the incubation, acetonitrile with an internal standard was added to stop the reaction.
(§5) 4) Metabolites generated by the substrates were measured by using the LC-MS/MS method, and the peak area ratio of each metabolite to the internal standard was evaluated and the inhibition rate and IC50 were calculated.

CYP3A4 = CYP3A4 (Homo sapiens (Human), UniProt P08684); assay: Inhibition of cytochrome P450 isoenzymes, CYP3A4; type: in vitro ADME; conditions: >50 μM: inhibitory effect less than 50% at 50 μM; read-out: CYP 3A4 IC50
Protocol: as §1, §2, §3, §4, §5

[1] = Metabolic stability in liver microsomes; type: in vitro ADME; conditions: pH 7.4; human liver microsomes 0.5 mg protein/mL; 45 mg microsome protein/g liver, 20 g liver/kg; read-out: Intrinsic Clearance CLint(liver) in Human Liver
Protocol: Test 3: Metabolic Stability in Liver Microsomes
3.1 Experimental Purpose: To test the metabolic stability of the compounds of the present disclosure in human liver microsomes
a. All samples as well as testosterone, diclofenac and propafenone acting as reference substances were dissolved in DMSO to a storage concentration of 10 mM.
b. Intermediate Solution: 5 μL of the substance to be tested or the reference substance was diluted with 45 μL of DMSO (with 450 μL of 1:1 methanol/water).
c. Working Solution: the intermediate solution was diluted with 450 μL of 100 mM potassium phosphate buffer solution (pH 7.4).
Assay Buffer: 100 mM potassium phosphate buffer (pH 7.4) • 10 mM MgCl2
Liver Microsome Solution (final concentration: 0.5 mg protein/mL):
Human liver microsomes, obtained from BD, Cat No. 452117, Lot No. 38291
b. 10 μL of the working solution containing the substance to be tested or the reference substance was added to each of plates (T0, T5, T10, T20, T30, T60, NCF60).
c. The liver microsome solution was dispensed into a 96-well plate in an amount of 680 μL/well, then 80 was added, and then T was added to each of the plates. The above incubation plate was placed at 37° C. and pre-incubated for approximately 10 minutes.
d. 10 μL of 100 mM potassium phosphate buffer was added to each well in the NCF60 plate.
e. After the pre-incubation was finished, the NADPH regeneration system working solution was dispensed into the 96-well plate in an amount of 90 μL/well, and then added to each of the plates in an amount of 10 μL/well to start the reaction.
f. The plates were incubated for an appropriate time (e.g., 5, 10, 20, 30, or 60 minutes).
g. The stop solution (refrigerated at 4° C., containing 100 ng/mL Tolbutamide and 100 ng/mL Labetalol) was added to each sample well in an amount of 300 μL/well.
h. The sample plates were shaken well for about 10 minutes and centrifuged at 4,000 rpm for 20 minutes at 4° C. During the centrifugation, 300 μL of HPLC water was added to each well, and 100 μL of the supernatant was taken for LC-MS/MS analysis.
T1/2 and Clint(mic) were calculated by the following formula: […]
Each gram of liver contained 45 mg of microsome protein, and the liver weight was 20 g/kg in a human.
Ct was the concentration at time t, t was the incubation time, C0 was the concentration at time 0, Ke was an elimination rate constant, Clint(mic) was the intrinsic clearance in liver microsomes, and Clint(liver) was the intrinsic clearance in liver. CLint(mic)=0.693/half-life/mg of microsome protein per mL(concentration of microsomes during incubation) CLint(liver)=CLint(mic)×mg of microsome protein/g of liver weight×a ratio of liver weight to body weight 3.4 Test Results

[2] = biological target: human μ-subtype opioid receptor (hMOR) (Homo sapiens (Human), UniProt P35372); assay: MOR cAMP agonist activity test; type: cell-based; conditions: for Emax: maximum effect of enkephalin DAMGO was 100%
Protocol: Test 1: MOR cAMP Agonist Activity Test
1.1 Experimental Purpose: To test the cAMP agonist activity of the compounds of the present disclosure on the human μ-subtype opioid receptor (hMOR).
a. Compound samples were dissolved in DMSO to a storage concentration of 10 mM.
b. A series of diluted samples were formulated on a 384-well LDV plate. A total of 11 concentration points were obtained by 3.162-fold gradient dilution.
c. The series of diluted samples were transferred to an experimental plate (Corning-3824) by using an Echo machine, wherein 30 nL was transferred corresponding to each well.
The experiment was performed using a cAMP detection kit from Cisbio (Cisbio #62AM4PEJ).
a. Assay buffer and stimulation buffer (STB) required for the experiment were formulated.
Stimulation Buffer: formulated with the assay buffer, containing 5 μM NKH477 (CAS: 138605-00-2) and 200 μM IBMX (3-isobutyl-1-methylxanthine)
b. […] The number of cells in the well was 10,000 cells/well.
c. The experimental plate was placed in a 37° C. constant-temperature incubator for incubation. The incubation was performed for 40 minutes.
d. A cAMP standard concentration curve was prepared. The first concentration point was at 2848 nM, and a total of sixteen detection concentrations were obtained by 4-fold gradient dilution. There were three replicates for each concentration point.
e. The cAMP detection kit from Cisbio was provided therein with a d2-labeled cAMP reagent (d2 reagent) and an Eu-labeled cAMP antibody reagent (Crypate reagent). The above two reagents were formulated according to the kit instructions, and then added to the sample experimental plate and to the cAMP standard concentration experimental plate, respectively. It was necessary to add 5 μL of the d2 reagent and then 5 μL of the Cryptate reagent to each well.
f. After the experimental plates were left at room temperature for 60 minutes, the experimental plates were read on the Envision.

Sequence of CYP3A4 (P08684 whole entry): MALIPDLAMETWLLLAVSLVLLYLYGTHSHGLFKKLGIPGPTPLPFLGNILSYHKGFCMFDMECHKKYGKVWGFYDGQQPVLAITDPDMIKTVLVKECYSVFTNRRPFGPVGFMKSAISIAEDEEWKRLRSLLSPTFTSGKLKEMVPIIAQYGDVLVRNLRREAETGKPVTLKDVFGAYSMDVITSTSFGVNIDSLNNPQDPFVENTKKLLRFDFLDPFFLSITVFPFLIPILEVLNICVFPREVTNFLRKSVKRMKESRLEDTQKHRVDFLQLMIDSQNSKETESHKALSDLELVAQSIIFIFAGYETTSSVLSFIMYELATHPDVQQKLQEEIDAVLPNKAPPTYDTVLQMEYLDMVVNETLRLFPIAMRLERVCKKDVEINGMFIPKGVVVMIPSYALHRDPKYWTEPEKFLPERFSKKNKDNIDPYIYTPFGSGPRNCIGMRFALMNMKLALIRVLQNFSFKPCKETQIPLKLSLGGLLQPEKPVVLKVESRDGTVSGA
Sequence of CYP2C9 (P11712 whole entry, canonical isoform): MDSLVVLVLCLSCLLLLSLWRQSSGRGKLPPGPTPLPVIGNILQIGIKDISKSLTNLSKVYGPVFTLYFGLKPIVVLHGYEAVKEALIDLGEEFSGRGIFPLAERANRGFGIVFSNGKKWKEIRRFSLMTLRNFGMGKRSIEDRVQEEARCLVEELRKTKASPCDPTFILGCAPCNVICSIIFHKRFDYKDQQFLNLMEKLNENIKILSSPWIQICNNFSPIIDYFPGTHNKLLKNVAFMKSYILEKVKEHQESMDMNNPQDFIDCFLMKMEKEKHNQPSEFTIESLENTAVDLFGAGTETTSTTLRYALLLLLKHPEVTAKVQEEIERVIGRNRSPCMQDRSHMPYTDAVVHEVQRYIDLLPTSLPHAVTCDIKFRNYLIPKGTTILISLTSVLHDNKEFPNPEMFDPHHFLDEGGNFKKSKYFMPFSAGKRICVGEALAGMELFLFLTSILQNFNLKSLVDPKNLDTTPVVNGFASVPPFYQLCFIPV

| SMILES | pIC50 (CYP2C9) | pIC50 (CYP3A4) | CLint scaled [1] | Emax [2] | pEC50 [2] |
| --- | --- | --- | --- | --- | --- |
| c1ccc([C@]2(CCNCc3scc4c3CCC4)CCO[C@]3(CCOC3)C2)nc1 [(+)-2] | < 4.30 | < 4.30 | 49 mL/min/kg | 96% |  |
| Fc1ccc([C@]2(CCNCc3cccc(Cl)c3)CCO[C@]3(CCOC3)C2)nc1 [(+)-16] | < 4.30 | 4.39 | 29.2 mL/min/kg | 91.7% | 9.30 |
| Cc1cccc(CNCC[C@@]2(c3ccc(F)cn3)CCO[C@]3(CCOC3)C2)c1 [Hydrochloride Salt of (+)-22] | < 4.30 | < 4.30 | 13.5 mL/min/kg | 93.3% |  |
| Fc1ccc([C@]2(CCNCc3cccc(F)c3)CCO[C@]3(CCOC3)C2)nc1 [Hydrochloride Salt of (+)-23] | < 4.30 | < 4.30 | 15.6 mL/min/kg | 84.5% | 9.00 |
| COc1ccsc1CNCC[C@@]1(c2ccccn2)CCOC2(CCCC2)C1 [compound 1, Oliceridine, reference compound] | < 4.30 |  | 314 mL/min/kg | 82.7% |  |
